Results: patent US11912686B2 (Gilead Sciences, Inc., priority 2020, dated 2024)

molecular target: human LPAR1 (Homo sapiens (Human), UniProt Q92633); test: LPAR1 intracellular calcium mobilization assay (antagonist mode, FLIPR); format: cell-based; conditions: CHO-K1 EDG2 cells expressing human LPAR1, LPA 18:2 at EC80 (100 nM), test compound 0.5 nM to 10 μM
Sequence (Q92633 whole entry): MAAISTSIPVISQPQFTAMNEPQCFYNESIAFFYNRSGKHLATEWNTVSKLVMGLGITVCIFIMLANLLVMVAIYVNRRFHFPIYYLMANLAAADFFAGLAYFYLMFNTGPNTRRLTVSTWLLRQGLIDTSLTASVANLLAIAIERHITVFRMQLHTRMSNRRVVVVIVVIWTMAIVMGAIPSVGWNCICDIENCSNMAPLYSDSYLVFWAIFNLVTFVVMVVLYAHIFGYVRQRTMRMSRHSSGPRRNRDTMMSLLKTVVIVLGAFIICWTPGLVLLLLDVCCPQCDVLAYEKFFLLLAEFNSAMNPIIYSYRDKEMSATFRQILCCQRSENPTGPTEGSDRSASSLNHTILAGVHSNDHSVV

Q: Which EC50 does the source give for `C[C@@H](OC(=O)Nc1c(-c2ccc(NC(=O)CC(C)(C)O)cn2)nnn1C)c1cccnc1Cl` [Compound 118, (R)-1-(2-chloropyridin-3-yl)ethyl (4-(5-(3-hydroxy-3-methylbutanamido)pyridin-2-yl)-1-methyl-1H-1,2,3-triazol-5-yl)carbamate] here?
A: 1340 nM

Q: `C[C@@H](OC(=O)Nc1c(-c2ccc(NC(=O)C3(C(F)F)CC(F)(F)C3)cn2)nnn1C)c1cccnc1Cl` [Compound 119, (R)-1-(2-chloropyridin-3-yl)ethyl (4-(5-(1-(difluoromethyl)-3,3-difluorocyclobutane-1-carboxamido)pyridin-2-yl)-1-methyl-1H-1,2,3-triazol-5-yl)carbamate] was tested. Which EC50 did it give?
A: 49.9 nM

Q: How did the EC50 turn out when `C[C@@H](OC(=O)Nc1c(-c2ccc(NC(=O)C3(C(F)(F)F)CC(=O)C3)cn2)nnn1C)c1cccnc1Cl` [Compound 120, (R)-1-(2-chloropyridin-3-yl)ethyl (1-methyl-4-(5-(3-oxo-1-(trifluoromethyl)cyclobutane-1-carboxamido)pyridin-2-yl)-1H-1,2,3-triazol-5-yl)carbamate] was run?
A: 2470 nM

Q: Which EC50 does the source give for `C[C@@H](OC(=O)Nc1c(-c2ccc(NC(=O)[C@]3(C)C[C@H](C#N)C3)cn2)nnn1C)c1cccnc1Cl` [Compound 121, (R)-1-(2-chloropyridin-3-yl)ethyl (4-(5-((1s,3S)-3-cyano-1-methylcyclobutane-1-carboxamido)pyridin-2-yl)-1-methyl-1H-1,2,3-triazol-5-yl)carbamate] here?
A: 264 nM

Q: For `C[C@@H](OC(=O)Nc1c(-c2ccc(NC(=O)[C@]3(C)C[C@@H](C#N)C3)cn2)nnn1C)c1cccnc1Cl` [Compound 122, (R)-1-(2-chloropyridin-3-yl)ethyl (4-(5-((1r,3R)-3-cyano-1-methylcyclobutane-1-carboxamido)pyridin-2-yl)-1-methyl-1H-1,2,3-triazol-5-yl)carbamate], which EC50 is on record?
A: 123 nM

Q: With `C[C@@H](OC(=O)Nc1c(-c2ccc(NC(=O)C3CC(F)(C#N)C3)cn2)nnn1C)c1cccnc1Cl` (stereo partly drawn) [Compound 123, (R)-1-(2-chloropyridin-3-yl)ethyl (4-(5-(3-cyano-3-fluorocyclobutane-1-carboxamido)pyridin-2-yl)-1-methyl-1H-1,2,3-triazol-5-yl)carbamate] as the compound, how does the EC50 read?
A: 626 nM

Q: `C[C@@H](O)C(=O)Nc1ccc(-c2nnn(C)c2NC(=O)O[C@H](C)c2cccnc2Cl)nc1` [Compound 124, (R)-1-(2-chloropyridin-3-yl)ethyl (4-(5-((R)-2-hydroxypropanamido)pyridin-2-yl)-1-methyl-1H-1,2,3-triazol-5-yl)carbamate] was tested. Which EC50 did it give?
A: 3630 nM

Q: Which EC50 does the source give for `C[C@H](O)C(=O)Nc1ccc(-c2nnn(C)c2NC(=O)O[C@H](C)c2cccnc2Cl)nc1` [Compound 125, (R)-1-(2-chloropyridin-3-yl)ethyl (4-(5-((S)-2-hydroxypropanamido)pyridin-2-yl)-1-methyl-1H-1,2,3-triazol-5-yl)carbamate] here?
A: 2710 nM

Q: With `C[C@@H](OC(=O)Nc1c(-c2ccc(NC(=O)CO)cn2)nnn1C)c1cccnc1Cl` [Compound 126, (R)-1-(2-chloropyridin-3-yl)ethyl (4-(5-(2-hydroxyacetamido)pyridin-2-yl)-1-methyl-1H-1,2,3-triazol-5-yl)carbamate] as the compound, how does the EC50 read?
A: 1830 nM

Q: For `C[C@@H](OC(=O)Nc1c(-c2ccc(NC(=O)[C@H]3C[C@H](C#N)C3)cn2)nnn1C)c1cccnc1Cl` [Compound 127, (R)-1-(2-chloropyridin-3-yl)ethyl (4-(5-((1r,3R)-3-cyanocyclobutane-1-carboxamido)pyridin-2-yl)-1-methyl-1H-1,2,3-triazol-5-yl)carbamate], which EC50 is on record?
A: 416 nM

Q: Which EC50 does the source give for `C[C@@H](OC(=O)Nc1c(-c2ccc(NC(=O)[C@H]3C[C@@H](C#N)C3)cn2)nnn1C)c1cccnc1Cl` [Compound 128, (R)-1-(2-chloropyridin-3-yl)ethyl (4-(5-((1s,3S)-3-cyanocyclobutane-1-carboxamido)pyridin-2-yl)-1-methyl-1H-1,2,3-triazol-5-yl)carbamate] here?
A: 309 nM

Q: How did the EC50 turn out when `C[C@@H](OC(=O)Nc1c(-c2ccc(NC(=O)C(C)(C)C#N)cn2)nnn1C)c1cccnc1Cl` [Compound 129, (R)-1-(2-chloropyridin-3-yl)ethyl (4-(5-(2-cyano-2-methylpropanamido)pyridin-2-yl)-1-methyl-1H-1,2,3-triazol-5-yl)carbamate] was run?
A: 492 nM

Q: How did the EC50 turn out when `C[C@@H](OC(=O)Nc1c(-c2ccc(NC(=O)C3CC3C#N)cn2)nnn1C)c1cccnc1Cl` (stereo partly drawn) [Compound 130, (R)-1-(2-chloropyridin-3-yl)ethyl (4-(5-(2-cyanocyclopropane-1-carboxamido)pyridin-2-yl)-1-methyl-1H-1,2,3-triazol-5-yl)carbamate] was run?
A: 271 nM

Q: How did the EC50 turn out when `C[C@@H](OC(=O)Nc1c(-c2ccc(NC(=O)C3(F)CC(F)C3)cn2)nnn1C)c1cccnc1Cl` (stereo partly drawn) [Compound 131, (R)-1-(2-chloropyridin-3-yl)ethyl (4-(5-(1,3-difluorocyclobutane-1-carboxamido)pyridin-2-yl)-1-methyl-1H-1,2,3-triazol-5-yl)carbamate] was run?
A: 260 nM

Q: `C[C@@H](OC(=O)Nc1c(-c2ccc(NC(=O)C3(C#N)CC(F)C3)cn2)nnn1C)c1cccnc1Cl` (stereo partly drawn) [Compound 132, (R)-1-(2-chloropyridin-3-yl)ethyl (4-(5-(1-cyano-3-fluorocyclobutane-1-carboxamido)pyridin-2-yl)-1-methyl-1H-1,2,3-triazol-5-yl)carbamate] was tested. Which EC50 did it give?
A: 197 nM

Q: Which EC50 does the source give for `C[C@@H](OC(=O)Nc1c(-c2ccc(NC(=O)[C@]3(F)C[C@H](O)C3)cn2)nnn1C)c1cccnc1Cl` [Compound 133, (R)-1-(2-chloropyridin-3-yl)ethyl (4-(5-((1r,3R)-1-fluoro-3-hydroxycyclobutane-1-carboxamido)pyridin-2-yl)-1-methyl-1H-1,2,3-triazol-5-yl)carbamate] here?
A: 344 nM

Q: Which EC50 does the source give for `C[C@@H](OC(=O)Nc1c(-c2ccc(NC(=O)[C@]3(F)C[C@@H](O)C3)cn2)nnn1C)c1cccnc1Cl` [Compound 134, (R)-1-(2-chloropyridin-3-yl)ethyl (4-(5-((1s,3S)-1-fluoro-3-hydroxycyclobutane-1-carboxamido)pyridin-2-yl)-1-methyl-1H-1,2,3-triazol-5-yl)carbamate] here?
A: 449 nM

Q: How did the EC50 turn out when `C[C@@H](OC(=O)Nc1c(-c2ccc(NC(=O)C3(C#N)CC(O)C3)cn2)nnn1C)c1cccnc1Cl` (stereo partly drawn) [Compound 135, (R)-1-(2-chloropyridin-3-yl)ethyl (4-(5-(1-cyano-3-hydroxycyclobutane-1-carboxamido)pyridin-2-yl)-1-methyl-1H-1,2,3-triazol-5-yl)carbamate] was run?
A: 726 nM

Q: `C[C@@H](OC(=O)Nc1c(-c2ccc(NC(=O)C3CC(O)(C(F)(F)F)C3)cn2)nnn1C)c1cccnc1Cl` (stereo partly drawn) [Compound 136, (R)-1-(2-chloropyridin-3-yl)ethyl (4-(5-(3-hydroxy-3-(trifluoromethyl)cyclobutane-1-carboxamido)pyridin-2-yl)-1-methyl-1H-1,2,3-triazol-5-yl)carbamate] was tested. Which EC50 did it give?
A: 602 nM

Q: `C[C@@H](OC(=O)Nc1c(-c2ccc(NC(=O)[C@@H]3C[C@@H]3C#N)cn2)nnn1C)c1cccnc1Cl` [Compound 137, (R)-1-(2-chloropyridin-3-yl)ethyl (4-(5-((1R,2S)-2-cyanocyclopropane-1-carboxamido)pyridin-2-yl)-1-methyl-1H-1,2,3-triazol-5-yl)carbamate] was tested. Which EC50 did it give?
A: 1090 nM
